Test results reported in ChEMBL document CHEMBL1201862, “PubChem BioAssay data set” (2004).
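Test compounds were applied to cells in 96-well plates for 48 hours at 5 doses. GI50 = concentration required for 50% inhibition of growth.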 The source made the active and inactive calls. No stated cut-off is given here; in the data, active = GI50 up to about 1.1 µM and inactive = higher.

Key:
Assay in all cases: NCI anticancer screen, dose series, 48 h
[1] = system: 786-0
[2] = system: A498
[3] = system: A549
[4] = system: ACHN
[5] = system: BT-549
[6] = system: CAKI-1
[7] = system: CCRF-CEM
[8] = system: COLO 205
[9] = system: DU-145
[10] = system: EKVX
[11] = system: HCC 2998
[12] = system: HCT-116
[13] = system: HCT-15
[14] = system: HOP-62
[15] = system: HT-29
[16] = system: Hs-578T
[17] = system: K562
[18] = system: KM12
[19] = system: M14
[20] = system: MCF7
[21] = system: MDA-MB-231
[22] = system: MDA-MB-435
[23] = system: MOLT-4
[24] = system: Malme-3M
[25] = system: NCI-H226
[26] = system: NCI-H23
[27] = system: NCI-H460
[28] = system: NCI/ADR-RES
[29] = system: OVCAR-3
[30] = system: OVCAR-4
[31] = system: OVCAR-5
[32] = system: OVCAR-8
[33] = system: PC-3
[34] = system: RPMI-8226
[35] = system: RXF 393
[36] = system: SF-268
[37] = system: SF-295
[38] = system: SF-539
[39] = system: SK-MEL-28
[40] = system: SK-MEL-2
[41] = system: SK-OV-3
[42] = system: SN12C
[43] = system: SNB-19
[44] = system: SNB-75
[45] = system: SW-620
[46] = system: T47D
[47] = system: U-251
[48] = system: UACC-257
[49] = system: UACC-62
[50] = system: UO-31
[51] = system: HL-60
[52] = system: HOP-92
[53] = system: IGROV-1
[54] = system: LOX IMVI
[55] = system: MDA-N
[56] = system: SK-MEL-5
[57] = system: SR
[58] = system: TK-10
[59] = system: NCI-H522

## Cc1n[nH]c(=O)n1/N=C/c1ccco1
[1]
  GI50: > 100 µM (inactive)
[2]
  GI50: > 100 µM (inactive)
[3]
  GI50: > 100 µM (inactive)
[4]
  GI50: > 100 µM (inactive)
[5]
  GI50: > 100 µM (inactive)
[6]
  GI50: > 100 µM (inactive)
[7]
  GI50: > 100 µM (inactive)
[8]
  GI50: > 100 µM (inactive)
[9]
  GI50: > 100 µM (inactive)
[10]
  GI50: > 100 µM (inactive)
[11]
  GI50: > 100 µM (inactive)
[12]
  GI50: > 100 µM (inactive)
[13]
  GI50: > 100 µM
[14]
  GI50: > 100 µM (inactive)
[15]
  GI50: > 100 µM (inactive)
[16]
  GI50: > 100 µM (inactive)
[17]
  GI50: > 100 µM (inactive)
[18]
  GI50: > 100 µM (inactive)
[19]
  GI50: > 100 µM (inactive)
[20]
  GI50: > 100 µM (inactive)
[21]
  GI50: > 100 µM (inactive)
[22]
  GI50: > 100 µM (inactive)
[23]
  GI50: > 100 µM (inactive)
[24]
  GI50: > 100 µM (inactive)
[25]
  GI50: > 100 µM (inactive)
[26]
  GI50: > 100 µM (inactive)
[27]
  GI50: > 100 µM (inactive)
[28]
  GI50: > 100 µM (inactive)
[29]
  GI50: > 100 µM (inactive)
[30]
  GI50: > 100 µM (inactive)
[31]
  GI50: > 100 µM (inactive)
[32]
  GI50: > 100 µM (inactive)
[33]
  GI50: > 100 µM (inactive)
[34]
  GI50: > 100 µM (inactive)
[35]
  GI50: > 100 µM (inactive)
[36]
  GI50: > 100 µM (inactive)
[37]
  GI50: > 100 µM (inactive)
[38]
  GI50: > 100 µM (inactive)
[39]
  GI50: > 100 µM (inactive)
[40]
  GI50: > 100 µM (inactive)
[41]
  GI50: > 100 µM (inactive)
[42]
  GI50: > 100 µM (inactive)
[43]
  GI50: > 100 µM (inactive)
[44]
  GI50: > 100 µM (inactive)
[45]
  GI50: > 100 µM (inactive)
[46]
  GI50: > 100 µM (inactive)
[47]
  GI50: > 100 µM (inactive)
[48]
  GI50: > 100 µM (inactive)
[49]
  GI50: > 100 µM (inactive)
[50]
  GI50: > 100 µM (inactive)

## CCCCCCCC/C=C/CCCCCCCC1CC(O)C(=O)O1 (configuration not stated)
[1]
  GI50: 42.4 µM (inactive)
[2]
  GI50: 28.4 µM (inactive)
[3]
  GI50: 51.6 µM (inactive)
[4]
  GI50: 28.4 µM (inactive)
[5]
  GI50: 28.9 µM (inactive)
[7]
  GI50: 39.9 µM (inactive)
[8]
  GI50: 30.1 µM (inactive)
[9]
  GI50: 36.7 µM (inactive)
[10]
  GI50: 50.8 µM (inactive)
[11]
  GI50: 61.4 µM (inactive)
[12]
  GI50: 41.1 µM (inactive)
[13]
  GI50: 43.1 µM
[51]
  GI50: 35.3 µM (inactive)
[14]
  GI50: 41.4 µM (inactive)
[52]
  GI50: 26.7 µM (inactive)
[15]
  GI50: 33.4 µM (inactive)
[53]
  GI50: 85.3 µM (inactive)
[17]
  GI50: 42 µM (inactive)
[54]
  GI50: 78.3 µM (inactive)
[19]
  GI50: 41.4 µM (inactive)
[20]
  GI50: 32.4 µM (inactive)
[21]
  GI50: > 100 µM (inactive)
[22]
  GI50: 38.9 µM (inactive)
[55]
  GI50: 59.7 µM (inactive)
[23]
  GI50: 32.9 µM (inactive)
[24]
  GI50: 54.1 µM (inactive)
[25]
  GI50: > 100 µM (inactive)
[26]
  GI50: 44.8 µM (inactive)
[27]
  GI50: 25.1 µM (inactive)
[28]
  GI50: 54.1 µM (inactive)
[29]
  GI50: 27.9 µM (inactive)
[30]
  GI50: 43.2 µM (inactive)
[31]
  GI50: > 100 µM (inactive)
[32]
  GI50: 55.1 µM (inactive)
[33]
  GI50: 46.3 µM (inactive)
[34]
  GI50: 25.8 µM (inactive)
[36]
  GI50: 46.2 µM (inactive)
[37]
  GI50: 30.7 µM (inactive)
[39]
  GI50: 72.3 µM (inactive)
[56]
  GI50: 46.1 µM (inactive)
[41]
  GI50: 79.8 µM (inactive)
[42]
  GI50: > 10 µM (inactive)
[43]
  GI50: 65.2 µM (inactive)
[44]
  GI50: 35.7 µM (inactive)
[57]
  GI50: 27.7 µM (inactive)
[45]
  GI50: 55.5 µM (inactive)
[46]
  GI50: 39.5 µM (inactive)
[58]
  GI50: > 100 µM (inactive)
[47]
  GI50: 62.7 µM (inactive)
[48]
  GI50: 46.7 µM (inactive)
[49]
  GI50: 63.2 µM (inactive)
[50]
  GI50: 62.8 µM (inactive)

## C#CCOC(=O)C=[N+]=[N-]
[1]
  GI50: > 10 µM (inactive)
[2]
  GI50: 6.92 µM (inactive)
[3]
  GI50: > 10 µM (inactive)
[4]
  GI50: > 10 µM (inactive)
[5]
  GI50: > 10 µM (inactive)
[7]
  GI50: > 10 µM (inactive)
[9]
  GI50: > 10 µM (inactive)
[10]
  GI50: > 10 µM (inactive)
[12]
  GI50: > 10 µM (inactive)
[13]
  GI50: > 10 µM
[51]
  GI50: > 10 µM (inactive)
[14]
  GI50: > 10 µM (inactive)
[52]
  GI50: > 10 µM (inactive)
[15]
  GI50: > 10 µM (inactive)
[53]
  GI50: > 10 µM (inactive)
[17]
  GI50: > 10 µM (inactive)
[18]
  GI50: > 10 µM (inactive)
[54]
  GI50: > 10 µM (inactive)
[19]
  GI50: > 10 µM (inactive)
[20]
  GI50: > 10 µM (inactive)
[21]
  GI50: > 10 µM (inactive)
[22]
  GI50: > 10 µM (inactive)
[55]
  GI50: > 10 µM (inactive)
[23]
  GI50: > 10 µM (inactive)
[24]
  GI50: > 10 µM (inactive)
[25]
  GI50: > 10 µM (inactive)
[26]
  GI50: > 10 µM (inactive)
[27]
  GI50: > 10 µM (inactive)
[29]
  GI50: > 10 µM (inactive)
[31]
  GI50: > 10 µM (inactive)
[32]
  GI50: > 10 µM (inactive)
[33]
  GI50: > 10 µM (inactive)
[34]
  GI50: > 10 µM (inactive)
[35]
  GI50: > 10 µM (inactive)
[36]
  GI50: > 10 µM (inactive)
[37]
  GI50: > 10 µM (inactive)
[38]
  GI50: > 10 µM (inactive)
[39]
  GI50: > 10 µM (inactive)
[40]
  GI50: > 10 µM (inactive)
[41]
  GI50: > 10 µM (inactive)
[42]
  GI50: > 10 µM (inactive)
[43]
  GI50: > 10 µM (inactive)
[57]
  GI50: > 10 µM (inactive)
[45]
  GI50: > 10 µM (inactive)
[46]
  GI50: > 10 µM (inactive)
[47]
  GI50: > 10 µM (inactive)
[48]
  GI50: > 10 µM (inactive)
[49]
  GI50: > 10 µM (inactive)
[50]
  GI50: > 10 µM (inactive)

## N=C(N)N/N=C/c1c(-c2ccccc2)nc2ccn3c(/C=N/N=C(N)N)c(-c4ccccc4)nc3n12
[1]
  GI50: 82.6 µM (inactive)
[2]
  GI50: 46.8 µM (inactive)
[3]
  GI50: 51.2 µM (inactive)
[4]
  GI50: 21.8 µM (inactive)
[5]
  GI50: 69 µM (inactive)
[6]
  GI50: > 100 µM (inactive)
[7]
  GI50: > 100 µM (inactive)
[8]
  GI50: 43.3 µM (inactive)
[9]
  GI50: 58.1 µM (inactive)
[10]
  GI50: 21.9 µM (inactive)
[12]
  GI50: 26.6 µM (inactive)
[13]
  GI50: 38.4 µM
[51]
  GI50: 72.6 µM (inactive)
[14]
  GI50: 55.1 µM (inactive)
[52]
  GI50: > 100 µM (inactive)
[15]
  GI50: 34.1 µM (inactive)
[16]
  GI50: 39.5 µM (inactive)
[53]
  GI50: 2.11 µM (inactive)
[17]
  GI50: > 100 µM (inactive)
[18]
  GI50: 26.9 µM (inactive)
[54]
  GI50: 48.8 µM (inactive)
[19]
  GI50: 49.3 µM (inactive)
[20]
  GI50: 40.2 µM (inactive)
[21]
  GI50: > 100 µM (inactive)
[22]
  GI50: 61.2 µM (inactive)
[23]
  GI50: > 100 µM (inactive)
[24]
  GI50: 26.2 µM (inactive)
[25]
  GI50: > 100 µM (inactive)
[26]
  GI50: > 100 µM (inactive)
[27]
  GI50: 32.2 µM (inactive)
[59]
  GI50: 21.3 µM (inactive)
[28]
  GI50: > 100 µM (inactive)
[29]
  GI50: 68.5 µM (inactive)
[30]
  GI50: > 100 µM (inactive)
[31]
  GI50: 37 µM (inactive)
[32]
  GI50: 26.5 µM (inactive)
[33]
  GI50: 62.8 µM (inactive)
[34]
  GI50: > 100 µM (inactive)
[35]
  GI50: > 100 µM (inactive)
[36]
  GI50: > 100 µM (inactive)
[37]
  GI50: 55.3 µM (inactive)
[38]
  GI50: > 100 µM (inactive)
[39]
  GI50: 39.5 µM (inactive)
[40]
  GI50: > 100 µM (inactive)
[56]
  GI50: 48.4 µM (inactive)
[41]
  GI50: 37.7 µM (inactive)
[42]
  GI50: 38.8 µM (inactive)
[43]
  GI50: 20.3 µM (inactive)
[44]
  GI50: > 100 µM (inactive)
[45]
  GI50: 36.9 µM (inactive)
[46]
  GI50: > 100 µM (inactive)
[58]
  GI50: 59 µM (inactive)
[47]
  GI50: 58.5 µM (inactive)
[48]
  GI50: 23.5 µM (inactive)
[49]
  GI50: 38.9 µM (inactive)
[50]
  GI50: 46.5 µM (inactive)
